Data set [1] has as its target T1, Autotaxin (Homo sapiens, UniProt Q13822). The data set is described as follows: Inhibition of human recombinant ATX lysophospholipase activity expressed in insect sf9 cells using FS-3 fluorogenic substrate preincubated for 10 mins measured after 5 and 25 mins by fluorometric analysis.
Data set [2] in a line: Aqueous solubility of the compound. To be noted: buffer. The data set is classed as physicochemical.
Data set [3] addresses T1, Autotaxin. In words: Inhibition of human recombinant ATX lysophospholipase activity expressed in insect sf9 cells using FS-3 fluorogenic substrate at 10 uM preincubated for 10 mins measured after 5 and 25 mins by fluorometric analysis.

The results in this text go back to ChEMBL document CHEMBL1817542, “Aromatic phosphonates inhibit the lysophospholipase D activity of autotaxin” (Bioorg Med Chem Lett, 2011).

The structures appear in SMILES notation. Calls of active or inactive are those of the source. No cut-off for these calls is given here.

For the molecule `CCCCCCC(=O)Nc1ccc(C(F)P(=O)(O)O)cc1.NC1CCCCC1` (stereo not given), the Ki on Autotaxin [1] worked out at 834 nM.

For `CCCCCCCCCCCCCC(=O)Nc1ccc(CP(=O)(O)O)cc1.NC1CCCCC1`, the Ki at Autotaxin [1] was 9 nM. The solubility in data set [2] (read-out: solubility) is 1000 µg/mL. As for `CCCCCCCCCCCCCC(=O)Nc1ccc(C(Br)P(=O)(O)O)cc1.NC1CCCCC1` (stereo not given), the Ki at Autotaxin [1] is 8.1 nM. On to `COCCOCCOCCC(=O)Nc1ccc(CP(=O)(O)O)cc1.NC1CCCCC1`, for which, at Autotaxin [3], the inhibition result was “inactive”.

For the molecule `CCCCCCCCCC(=O)Nc1ccc(C(F)P(=O)(O)O)cc1.NC1CCCCC1` (stereo not given), at Autotaxin [1], the Ki was determined as 72 nM. `CCOP(=O)(Cc1ccc(N)cc1)OCC`: at Autotaxin [3], the inhibition result is “inactive”. The solubility result in data set [2] is “soluble”. As to `CCCCCCCCCCCCCC(=O)Nc1ccc(C(O)P(=O)(O)O)cc1.NC1CCCCC1` (stereo not given), the Ki on Autotaxin [1] was 24 nM. On the same count and under the same terms, the figure for `CCCCCCC(=O)Nc1ccc(CP(=O)(O)O)cc1.NC1CCCCC1` is 512 nM; for `CCCCCCC(=O)Nc1ccc(C(O)P(=O)(O)O)cc1.NC1CCCCC1` (stereo not given) it is 1010 nM. Regarding `CCCCCCCCCC(=O)Nc1ccc(CP(=O)(O)O)cc1.NC1CCCCC1`, the Ki at Autotaxin [1] is 18 nM. In the case of `CCCCCCCCCC(=O)Nc1ccc(C(O)P(=O)(O)O)cc1.NC1CCCCC1` (stereo not given), the Ki on Autotaxin [1] stood at 24.2 nM. Moreover, in data set [2] (read-out: solubility), the solubility turned out to be 4000 µg/mL. With `CCCCCCCCCCCCCC(=O)Nc1ccc(C(F)P(=O)(O)O)cc1.NC1CCCCC1` (stereo not given), the Ki on Autotaxin [1] worked out at 6.1 nM.
